From ChEMBL document CHEMBL1201862, “PubChem BioAssay data set” (2004)
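Briefly, cells in 96-well plates were exposed to five compound concentrations for 48 h, and endpoints were estimated by linear interpolation. Here, GI50 denotes the concentration required for 50% inhibition of growth.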 The source made the active and inactive calls. Rule as the data show it: active = GI50 up to about 1.1 µM and inactive = higher.

Columns and labels:
Assay in all cases: NCI tumour cell line growth inhibition, 48 h
NCI-H522 = tested on: NCI-H522
KM12 = tested on: KM12
HT-29 = tested on: HT-29
SF-268 = tested on: SF-268
SF-295 = tested on: SF-295
HL-60 = tested on: HL-60
NCI-H460 = tested on: NCI-H460
Malme-3M = tested on: Malme-3M
SN12C = tested on: SN12C
LXFL 529 = tested on: LXFL 529
ACHN = tested on: ACHN
MOLT-4 = tested on: MOLT-4
UACC-257 = tested on: UACC-257
CCRF-CEM = tested on: CCRF-CEM
HCC 2998 = tested on: HCC 2998
HCT-15 = tested on: HCT-15
SNB-78 = tested on: SNB-78
DMS-273 = tested on: DMS-273
EKVX = tested on: EKVX
TK-10 = tested on: TK-10
KM-20L2 = tested on: KM-20L2
RPMI-8226 = tested on: RPMI-8226
SW-620 = tested on: SW-620
OVCAR-3 = tested on: OVCAR-3
IGROV-1 = tested on: IGROV-1
M19-MEL = tested on: M19-MEL
CAKI-1 = tested on: CAKI-1
786-0 = tested on: 786-0
OVCAR-8 = tested on: OVCAR-8
OVCAR-4 = tested on: OVCAR-4
A549 = tested on: A549
DLD-1 = tested on: DLD-1
HOP-92 = tested on: HOP-92
SK-MEL-5 = tested on: SK-MEL-5
HOP-62 = tested on: HOP-62
OVCAR-5 = tested on: OVCAR-5
UACC-62 = tested on: UACC-62
COLO 205 = tested on: COLO 205
NCI-H23 = tested on: NCI-H23
SK-MEL-28 = tested on: SK-MEL-28
SK-MEL-2 = tested on: SK-MEL-2
RXF 393 = tested on: RXF 393
M14 = tested on: M14
LOX IMVI = tested on: LOX IMVI
SNB-75 = tested on: SNB-75
SK-OV-3 = tested on: SK-OV-3
K562 = tested on: K562
SF-539 = tested on: SF-539
SNB-19 = tested on: SNB-19
U-251 = tested on: U-251
SR = tested on: SR
DMS-114 = tested on: DMS-114
NCI-H226 = tested on: NCI-H226
A498 = tested on: A498
HCT-116 = tested on: HCT-116
UO-31 = tested on: UO-31

In the case of `CCOC(=O)C(C(=O)OCC)=c1sc(=C(C(=O)OCC)C(=O)OCC)s1`, the GI50 (NCI-H522) is reported as > 100 µM (inactive), the GI50 (KM12) is reported as > 100 µM (inactive) and the GI50 (HT-29) is reported as > 100 µM (inactive). The GI50 (SF-268) was > 100 µM (inactive), the GI50 (SF-295) was > 100 µM (inactive) and the GI50 (HL-60) was > 100 µM (inactive). The GI50 (NCI-H460) was > 100 µM (inactive), the GI50 (Malme-3M) was > 100 µM (inactive) and the GI50 (SN12C) was > 100 µM (inactive). For the same molecule, the GI50 (LXFL 529) was > 100 µM (inactive), the GI50 (ACHN) was > 100 µM (inactive) and the GI50 (MOLT-4) was > 100 µM (inactive). The GI50 (UACC-257) was > 100 µM (inactive), the GI50 (CCRF-CEM) was > 100 µM (inactive) and the GI50 (HCC 2998) was > 100 µM (inactive). For the same molecule, the GI50 (HCT-15) was over 100 µM, the GI50 (SNB-78) was > 100 µM (inactive) and the GI50 (DMS-273) was > 100 µM (inactive). For the same molecule, the GI50 (EKVX) was > 100 µM (inactive), the GI50 (TK-10) was > 100 µM (inactive) and the GI50 (KM-20L2) was > 100 µM (inactive). For the same molecule, the GI50 (RPMI-8226) was > 100 µM (inactive), the GI50 (SW-620) was > 100 µM (inactive) and the GI50 (OVCAR-3) was > 100 µM (inactive). The GI50 (IGROV-1) was > 100 µM (inactive), the GI50 (M19-MEL) was > 100 µM (inactive) and the GI50 (CAKI-1) was > 100 µM (inactive). For the same molecule, the GI50 (786-0) was > 100 µM (inactive), the GI50 (OVCAR-8) was > 100 µM (inactive) and the GI50 (OVCAR-4) was > 100 µM (inactive). The GI50 (A549) was > 100 µM (inactive), the GI50 (DLD-1) was > 100 µM (inactive) and the GI50 (HOP-92) was > 100 µM (inactive). For the same molecule, the GI50 (SK-MEL-5) was > 100 µM (inactive), the GI50 (HOP-62) was > 100 µM (inactive) and the GI50 (OVCAR-5) was > 100 µM (inactive). For the same molecule, the GI50 (UACC-62) was > 100 µM (inactive), the GI50 (COLO 205) was > 100 µM (inactive) and the GI50 (NCI-H23) was > 100 µM (inactive). The GI50 (SK-MEL-28) was > 100 µM (inactive), the GI50 (SK-MEL-2) was > 100 µM (inactive) and the GI50 (RXF 393) was > 100 µM (inactive). For the same molecule, the GI50 (M14) was > 100 µM (inactive), the GI50 (LOX IMVI) was > 100 µM (inactive) and the GI50 (SNB-75) was 76.2 µM (inactive). The GI50 (SK-OV-3) was > 100 µM (inactive) and the GI50 (K562) was > 100 µM (inactive).

In the case of `CCc1cccc(C(C)CC)c1NC(=O)C(=O)C(CC(=O)Nc1ccc(Cl)c(Cl)c1)C(=O)OC` (stereo unspecified), the GI50 (NCI-H522) is reported as 38.5 µM (inactive), the GI50 (KM12) is reported as 41.5 µM (inactive) and the GI50 (HT-29) is reported as 76 µM (inactive). For the same molecule, the GI50 (SF-268) was 64 µM (inactive), the GI50 (SF-539) was > 100 µM (inactive) and the GI50 (SF-295) was 30.4 µM (inactive). The GI50 (HL-60) was > 100 µM (inactive), the GI50 (SNB-19) was > 100 µM (inactive) and the GI50 (NCI-H460) was > 100 µM (inactive). For the same molecule, the GI50 (Malme-3M) was > 100 µM (inactive), the GI50 (SN12C) was > 100 µM (inactive) and the GI50 (LXFL 529) was 16.7 µM (inactive). The GI50 (ACHN) was 9.71 µM (inactive), the GI50 (MOLT-4) was 71.3 µM (inactive) and the GI50 (UACC-257) was > 100 µM (inactive). For the same molecule, the GI50 (CCRF-CEM) was > 100 µM (inactive), the GI50 (U-251) was > 100 µM (inactive) and the GI50 (SR) was 66.1 µM (inactive). For the same molecule, the GI50 (HCC 2998) was 93.3 µM (inactive), the GI50 (HCT-15) was 20.2 µM and the GI50 (SNB-78) was > 100 µM (inactive). For the same molecule, the GI50 (DMS-273) was 15.9 µM (inactive), the GI50 (EKVX) was > 100 µM (inactive) and the GI50 (TK-10) was > 100 µM (inactive). The GI50 (KM-20L2) was 19.8 µM (inactive), the GI50 (RPMI-8226) was 43.4 µM (inactive) and the GI50 (SW-620) was 46.7 µM (inactive). The GI50 (OVCAR-3) was > 100 µM (inactive), the GI50 (IGROV-1) was > 100 µM (inactive) and the GI50 (M19-MEL) was 36.8 µM (inactive). The GI50 (CAKI-1) was 19.5 µM (inactive), the GI50 (DMS-114) was 36.8 µM (inactive) and the GI50 (NCI-H226) was > 100 µM (inactive). For the same molecule, the GI50 (786-0) was 80.9 µM (inactive), the GI50 (OVCAR-8) was > 100 µM (inactive) and the GI50 (OVCAR-4) was > 100 µM (inactive). The GI50 (A549) was 63.1 µM (inactive), the GI50 (DLD-1) was > 100 µM (inactive) and the GI50 (HOP-92) was 16.7 µM (inactive). The GI50 (HOP-62) was 71.1 µM (inactive), the GI50 (OVCAR-5) was > 100 µM (inactive) and the GI50 (UACC-62) was 3.59 µM (inactive). The GI50 (A498) was > 100 µM (inactive), the GI50 (COLO 205) was > 100 µM (inactive) and the GI50 (NCI-H23) was > 100 µM (inactive). The GI50 (SK-MEL-28) was > 100 µM (inactive), the GI50 (HCT-116) was > 100 µM (inactive) and the GI50 (UO-31) was 73.1 µM (inactive). For the same molecule, the GI50 (SK-MEL-2) was > 100 µM (inactive), the GI50 (RXF 393) was > 100 µM (inactive) and the GI50 (M14) was 57.1 µM (inactive). The GI50 (SNB-75) was 21 µM (inactive), the GI50 (SK-OV-3) was > 100 µM (inactive) and the GI50 (K562) was 9.79 µM (inactive).
